# Experimental data taken from US9365523B2, “Imidazolyl amide compounds and uses related thereto” (priority 2011, dated 2016).
# Test system: MeV-Alaska
# Assay: Antiviral activity of compound analogs against MeV-Alaska (tables 1-5)
# Assay type: cell-based, measles virus
# Details: Measles morbillivirus; Table 5
row,EC50,SMILES
1,> 75 µM,Cc1ccc(N(Cc2ccc(F)cc2)C(=O)CSc2nc(-c3ccccc3)c(-c3ccccc3)n2Cc2ccc(F)cc2)c(Cl)c1 [Compound 143]
2,> 75 µM,Cc1ccc(NC(=O)C(C)(C)[S+]([O-])c2nc3ccccc3n2-c2ccccc2)c(Cl)c1 (stereo not drawn) [Compound 171]
3,> 75 µM,COc1ccc(-n2c(SC(C)C(=O)N3CCCCC3)nc3ccccc32)cc1 (stereo not drawn) [Compound 124]
4,> 150 µM,COc1ccc(-n2c(S(=O)(=O)C(C)C(=O)Nc3ccc(C)cc3Cl)nc3ccccc32)cc1 (stereo not drawn) [Compound 150]
5,> 75 µM,CCOC(=O)c1ccc2c(c1)nc(SC(C)C(=O)N(Cc1ccc(OC)cc1)c1ncc(Cl)cc1Cl)n2Cc1ccc(OC)cc1 (stereo not drawn) [Compound 134]
6,> 75 µM,Cc1cc2nc(SC(C)C(=O)Nc3ncc(Cl)cc3Cl)[nH]c2cc1C (stereo not drawn) [Compound 133]
7,> 75 µM,Cc1ccc(NC(=O)C(C)Sc2nc(-c3ccccc3)c(-c3ccccc3)[nH]2)c(Cl)c1 (stereo not drawn) [Compound 152]
8,> 75 µM,COc1ccc(-n2c(SC(C)C(=O)N(C)c3ccc(Cl)cc3Cl)nc3ccccc32)cc1 (stereo not drawn) [Compound 149]
9,> 75 µM,COc1ccc(-n2c(CCC(=O)Nc3ncc(C)cc3Cl)nc3ccccc32)cc1 [Compound 135]
10,> 50 µM,Cc1ccc(NC(=O)c2ccccc2-c2nc3ccccc3n2-c2ccccc2)c(Cl)c1 [Compound 163]
11,> 50 µM,Cc1ccc(NC(=O)/C=C\c2nc3ccccc3n2-c2ccccc2)c(Cl)c1 [Compound 138]
12,4.2 µM,COc1ccc(-n2c([S+]([O-])CC(=O)Nc3ccc(C)cc3Cl)nc3ccccc32)cc1 (stereo not drawn) [Compound 165]
13,> 75 µM,COc1ccc(Cn2c(CCC(=O)Nc3ccc(C)cc3Cl)nc3ccccc32)cc1 [Compound 137]
14,1.8 µM,O=C(CSc1nc2ccccc2n1-c1ccc(F)cc1)Nc1ncc(Cl)cc1Cl [Compound 156]
15,> 75 µM,Cc1ccc(NC(=O)CSc2nc(-c3ccccc3)c(-c3ccccc3)n2Cc2ccc(F)cc2)c(Cl)c1 [Compound 168]
16,1.2 µM,Cc1ccc(NC(=O)C(C)Sc2nc3cccnc3n2-c2ccccc2)c(Cl)c1 (stereo not drawn) [Compound 146]
17,> 75 µM,COc1ccc(-n2c(/C=C/C(=O)Nc3ccc(C)cc3Cl)nc3ccccc32)cc1 [Compound 161]
18,> 75 µM,Cc1cccc(-n2c(SCCNc3ccccc3)nc3ccccc32)c1 [Compound 172]
19,12.2 µM,CCC(Sc1nc2ccccc2n1-c1ccc(OC)cc1)C(=O)Nc1ncc(Cl)cc1Cl (stereo not drawn) [Compound 131]
20,16 µM,Cc1ccc(NC(=O)CSc2nc3cccnc3n2-c2ccccc2)c(Cl)c1 [Compound 147]
21,> 75 µM,COc1ccc(-n2ccnc2SC(C)C(=O)Nc2ncc(Cl)cc2Cl)cc1 (stereo not drawn) [Compound 132]
22,> 75 µM,Cc1ccc(N(Cc2ccc(F)cc2)C(=O)C(C)Sc2nc(-c3ccccc3)c(-c3ccccc3)n2Cc2ccc(F)cc2)c(Cl)c1 (stereo not drawn) [Compound 167]

# Same assay, conditions: Table 1
row,SMILES,EC50
1,COc1ccc(-n2c(SC(C)C(=O)Nc3nc(C)c(Cl)cc3Cl)nc3ccccc32)cc1 (stereo not drawn) [Compound 43],0.3 µM
2,COc1ccc(-n2c(SC(C)C(=O)Nc3cccc([N+](=O)[O-])c3)nc3ccccc32)cc1 (stereo not drawn) [Compound 33],4.6 µM
3,COc1ccc(-n2c(SC(C)C(=O)Nc3cc(Cl)nc(Cl)c3)nc3ccccc32)cc1 (stereo not drawn) [Compound 22],> 75 µM
4,COc1ccc(-n2c(SC(C)C(=O)Nc3ccc(Cl)cc3Cl)nc3ccccc32)cc1 (stereo not drawn) [Compound 12],0.4 µM
5,COc1ccc(-n2c(SC(C)C(=O)Nc3nc(C)nc(C)c3Cl)nc3ccccc32)cc1 (stereo not drawn) [Compound 30],> 75 µM
6,COc1ccc(-n2c(SC(C)C(=O)Nc3cc(Cl)ccc3Cl)nc3ccccc32)cc1 (stereo not drawn) [Compound 46],0.5 µM
7,COc1ccc(-n2c(SC(C)C(=O)Nc3ccncc3)nc3ccccc32)cc1 (stereo not drawn) [Compound 42],> 75 µM
8,COc1ccc(-n2c(SC(C)C(=O)Nc3cccc(N)c3)nc3ccccc32)cc1 (stereo not drawn) [Compound 51],7 µM
9,COc1ccc(-n2c(SC(C)C(=O)Nc3ccc(C)c(Cl)c3)nc3ccccc32)cc1 (stereo not drawn) [Compound 21],0.4 µM
10,COc1ccc(-n2c(SC(C)C(=O)Nc3ccc(N)cc3C)nc3ccccc32)cc1 (stereo not drawn) [Compound 52],> 9.3 µM
11,COc1ccc(-n2c(SC(C)C(=O)Nc3ccccc3C)nc3ccccc32)cc1 (stereo not drawn) [Compound 15],1.14 µM
12,COc1ccc(-n2c(SC(C)C(=O)Nc3nc(Cl)cc(Cl)n3)nc3ccccc32)cc1 (stereo not drawn) [Compound 44],> 75 µM
13,COc1ccc(-n2c(SC(C)C(=O)Nc3cc(OC)cc(OC)c3)nc3ccccc32)cc1 (stereo not drawn) [Compound 13],> 75 µM
14,COc1ccc(-n2c(SC(C)C(=O)Nc3ccc(Cl)c(Cl)c3)nc3ccccc32)cc1 (stereo not drawn) [Compound 48],7.3 µM
15,COc1ccc(-n2c(SC(C)C(=O)Nc3ncc(Br)cn3)nc3ccccc32)cc1 (stereo not drawn) [Compound 8],4.1 µM
16,COc1ccc(-n2c(SC(C)C(=O)Nc3ccc(C)cc3F)nc3ccccc32)cc1 (stereo not drawn) [Compound 31],0.2 µM
17,COc1ccc(-n2c(SC(C)C(=O)Nc3cccc(Cl)c3)nc3ccccc32)cc1 (stereo not drawn) [Compound 14],0.5 µM
18,COc1ccc(-n2c(SC(C)C(=O)Nc3ccc(Cl)cc3C)nc3ccccc32)cc1 (stereo not drawn) [Compound 20],1.4 µM
19,COc1ccc(-n2c(SC(C)C(=O)Nc3cc(C)on3)nc3ccccc32)cc1 (stereo not drawn) [Compound 55],0.49 µM
20,COc1ccc(-n2c(SC(C)C(=O)Nc3nccc(C)n3)nc3ccccc32)cc1 (stereo not drawn) [Compound 11],0.6 µM
21,COc1ccc(-n2c(SC(C)C(=O)Nc3nnc(C)c(C)n3)nc3ccccc32)cc1 (stereo not drawn) [Compound 6],16.6 µM
22,COc1ccc(-n2c(SC(C)C(=O)Nc3cc(Br)ccc3Br)nc3ccccc32)cc1 (stereo not drawn) [Compound 2],1.7 µM
23,COc1ccc(-n2c(SC(C)C(=O)Nc3ncc(Cl)cc3Cl)nc3ccccc32)cc1 (stereo not drawn) [Compound 1],0.3 µM
24,COc1ccc(-n2c(SC(C)C(=O)Nc3ccc(C)c(N)c3)nc3ccccc32)cc1 (stereo not drawn) [Compound 16],2.3 µM
25,COc1ccc(-n2c(SC(C)C(=O)Nc3ccc(C)cc3C)nc3ccccc32)cc1 (stereo not drawn) [Compound 45],1.1 µM
26,COc1ccc(-n2c(SC(C)C(=O)Nc3ncc(C)cc3Cl)nc3ccccc32)cc1 (stereo not drawn) [Compound 5],0.04 µM
27,COc1ccc(-n2c(SC(C)C(=O)Nc3nc(Cl)cc(OC)n3)nc3ccccc32)cc1 (stereo not drawn) [Compound 27],> 75 µM
28,COc1ccc(-n2c(SC(C)C(=O)Nc3ccccc3)nc3ccccc32)cc1 (stereo not drawn) [Compound 25],0.9 µM

# Same assay, conditions: Table 2
row,SMILES,EC50
1,Cc1ccc(NC(=O)C(C)Sc2nc3ccccc3n2-c2ccc(CO)cc2)c(Cl)c1 (stereo not drawn) [Compound 81],3.91 µM
2,Cc1ccc(NC(=O)C(C)Sc2nc3ccccc3n2C2CCN(C)CC2)c(Cl)c1 (stereo not drawn) [Compound 94],1.5 µM
3,Cc1ccc(NC(=O)C(C)Sc2nc3ccccc3n2-c2ccc(OCC#N)cc2)c(Cl)c1 (stereo not drawn) [Compound 57],0.7 µM
4,Cc1ccc(NC(=O)C(C)Sc2nc3ccccc3n2C2CCN(C(=O)OC(C)(C)C)CC2)c(Cl)c1 (stereo not drawn) [Compound 93],0.6 µM
5,Cc1ccc(NC(=O)C(C)Sc2nc3ccccc3n2C(=O)c2ccccc2)c(Cl)c1 (stereo not drawn) [Compound 91],> 9.3 µM
6,Cc1ccc(NC(=O)C(C)Sc2nc3ccccc3n2S(=O)(=O)C2CCCCC2)c(Cl)c1 (stereo not drawn) [Compound 89],0.61 µM
7,Cc1ccc(NC(=O)C(C)Sc2nc3ccccc3n2-c2ccc(CCO)cc2)c(Cl)c1 (stereo not drawn) [Compound 64],2.5 µM
8,Cc1ccc(NC(=O)C(C)Sc2nc3ccccc3n2-c2ccc(N=[N+]=[N-])cc2)c(Cl)c1 (stereo not drawn) [Compound 95],0.31 µM
9,Cc1ccc(NC(=O)C(C)Sc2nc3ccccc3n2C2CCNCC2)c(Cl)c1 (stereo not drawn) [Compound 92],> 75 µM
10,Cc1ccc(NC(=O)C(C)Sc2nc3ccccc3n2-c2ccccc2CN2CCOCC2)c(Cl)c1 (stereo not drawn) [Compound 79],0.3 µM
11,Cc1ccc(NC(=O)C(C)Sc2nc3ccccc3n2-c2ccccc2CN2CCN(C)CC2)c(Cl)c1 (stereo not drawn) [Compound 67],0.18 µM
12,Cc1ccc(NC(=O)C(C)Sc2nc3ccccc3n2Cc2ccccc2)c(Cl)c1 (stereo not drawn) [Compound 74],0.5 µM
13,Cc1ccc(NC(=O)C(C)Sc2nc3ccccc3n2-c2ccc(CN3CCOCC3)cc2)c(Cl)c1 (stereo not drawn) [Compound 56],0.32 µM
14,Cc1ccc(NC(=O)C(C)Sc2nc3ccccc3n2-c2cccc(CN3CCOCC3)c2)c(Cl)c1 (stereo not drawn) [Compound 83],0.27 µM
15,CNCCc1ccc(-n2c(SC(C)C(=O)Nc3ccc(C)cc3Cl)nc3ccccc32)cc1 (stereo not drawn) [Compound 66],8.7 µM
16,Cc1ccc(NC(=O)C(C)Sc2nc3ccccc3n2C2CCCCC2)c(Cl)c1 (stereo not drawn) [Compound 88],0.29 µM
17,Cc1ccc(NC(=O)C(C)Sc2nc3ccccc3n2-c2ccc(N(C)CCN(C)C)cc2)c(Cl)c1 (stereo not drawn) [Compound 60],2.9 µM
18,Cc1ccc(NC(=O)C(C)Sc2nc3ccccc3n2-c2ccc(CN(C)C)cc2)c(Cl)c1 (stereo not drawn) [Compound 98],1.4 µM
19,Cc1ccc(NC(=O)C(C)Sc2nc3ccccc3n2-c2ccc(N(C)C)cc2)c(Cl)c1 (stereo not drawn) [Compound 77],0.29 µM
20,COc1cccc(-n2c(SC(C)C(=O)Nc3ccc(C)cc3Cl)nc3ccccc32)c1 (stereo not drawn) [Compound 71],0.6 µM
21,Cc1ccc(NC(=O)C(C)Sc2nc3ccccc3n2-c2cccc(C(=O)O)c2)c(Cl)c1 (stereo not drawn) [Compound 82],> 75 µM
22,COc1cc(OC)cc(-n2c(SC(C)C(=O)Nc3ccc(C)cc3Cl)nc3ccccc32)c1 (stereo not drawn) [Compound 87],0.4 µM
23,Cc1ccc(NC(=O)C(C)Sc2nc3ccccc3n2-c2ccc(O)cc2)c(Cl)c1 (stereo not drawn) [Compound 76],3.8 µM

# Same assay, conditions: Table 3
row,SMILES,EC50
1,Cc1nnc(NC(=O)C(C)Sc2nc3ccccc3n2-c2ccc(F)cc2)nc1C (stereo not drawn) [Compound 106],23 µM
2,Cc1cnc(NC(=O)C(C)Sc2nc3ccccc3n2-c2ccc(F)cc2)c(Cl)c1 (stereo not drawn) [Compound 116],0.8 µM
3,COc1ccc(Cn2c(SC(C)C(=O)Nc3ncc(C)cc3Cl)nc3ccccc32)cc1 (stereo not drawn) [Compound 107],0.8 µM
4,COc1ccc(Cn2c(SC(C)C(=O)Nc3ccc(Cl)cc3Cl)nc3ccccc32)cc1 (stereo not drawn) [Compound 117],1.7 µM
5,CC(Sc1nc2ccccc2n1-c1ccc(O)cc1)C(=O)Nc1ncc(Cl)cc1Cl (stereo not drawn) [Compound 103],7.7 µM
6,CC(Sc1nc2ccccc2n1C)C(=O)Nc1ncc(Cl)cc1Cl (stereo not drawn) [Compound 113],> 10 µM
7,CCOc1ccc(-n2c(SC(C)C(=O)Nc3ncc(Cl)cc3Cl)nc3ccccc32)cc1 (stereo not drawn) [Compound 102],0.2 µM
8,CCOc1ccc(-n2c(SC(C)C(=O)Nc3ccc([N+](=O)[O-])cc3C)nc3ccccc32)cc1 (stereo not drawn) [Compound 110],> 9.3 µM
